# According to PubChem BioAssay (NCI):
#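 Values below derive from 48-hour exposures of cells grown in 96-well plates, with endpoints linearly interpolated between the two concentrations bracketing the appropriate inhibition level. TGI: concentration producing complete growth inhibition.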
# Key:
# Assay in all cases: DTP human tumour cell line panel, 48 h
# A498 renal = system: A498 renal
# A549 NSCLC = system: A549 NSCLC
# COLO 205 colon = system: COLO 205 colon
# HCC-2998 colon = system: HCC-2998 colon
# HOP-62 NSCLC = system: HOP-62 NSCLC
# HOP-92 NSCLC = system: HOP-92 NSCLC
# MDA-N = system: MDA-N
# NCI-H460 lung = system: NCI-H460 lung
# RXF 393 renal = system: RXF 393 renal
# SK-MEL-5 melanoma = system: SK-MEL-5 melanoma
# UACC-257 melanoma = system: UACC-257 melanoma
structure (smiles),measurement,setting,value
COC(Cc1ccccc1)NC(C)=O (configuration not stated),TGI,A498 renal,> 100 µM
same,TGI,A549 NSCLC,> 100 µM
same,TGI,COLO 205 colon,> 100 µM
same,TGI,HCC-2998 colon,> 100 µM
same,TGI,HOP-62 NSCLC,> 100 µM
same,TGI,HOP-92 NSCLC,> 100 µM
same,TGI,MDA-N,> 100 µM
same,TGI,NCI-H460 lung,> 100 µM
same,TGI,RXF 393 renal,> 100 µM
same,TGI,SK-MEL-5 melanoma,> 100 µM
same,TGI,UACC-257 melanoma,> 100 µM
CC1(C)CC[C@]2(C(=O)O)CC[C@]3(C)C(=CC[C@@H]4[C@@]5(C)CC[C@H](OC6OC(CO)C(O)C(O)C6OC6OC(CO)C(O)C(O)C6O)C(C)(C)[C@@H]5CC[C@]43C)[C@@H]2C1 (some centres not stated),TGI,A498 renal,34 µM
same,TGI,A549 NSCLC,33.7 µM
same,TGI,COLO 205 colon,28.7 µM
same,TGI,HCC-2998 colon,36.2 µM
same,TGI,HOP-62 NSCLC,32.7 µM
same,TGI,HOP-92 NSCLC,31.7 µM
same,TGI,MDA-N,34.8 µM
same,TGI,NCI-H460 lung,41.5 µM
same,TGI,RXF 393 renal,37.3 µM
same,TGI,SK-MEL-5 melanoma,33.7 µM
same,TGI,UACC-257 melanoma,42 µM
S=C1SC(c2ccc(Cl)cc2)(c2ccc(Cl)cc2)c2ccccc21,TGI,A498 renal,> 100 µM
same,TGI,A549 NSCLC,> 100 µM
same,TGI,COLO 205 colon,> 100 µM
same,TGI,HCC-2998 colon,> 100 µM
same,TGI,HOP-62 NSCLC,> 100 µM
same,TGI,HOP-92 NSCLC,> 100 µM
same,TGI,MDA-N,> 100 µM
same,TGI,NCI-H460 lung,> 100 µM
same,TGI,RXF 393 renal,> 100 µM
same,TGI,SK-MEL-5 melanoma,> 100 µM
same,TGI,UACC-257 melanoma,> 100 µM
Cc1nn(C)c2c1C(=O)N(C)CC(=O)N2C,TGI,A498 renal,> 100 µM
same,TGI,A549 NSCLC,> 100 µM
same,TGI,COLO 205 colon,> 100 µM
same,TGI,HCC-2998 colon,> 100 µM
same,TGI,HOP-62 NSCLC,> 100 µM
same,TGI,HOP-92 NSCLC,> 100 µM
same,TGI,MDA-N,> 100 µM
same,TGI,NCI-H460 lung,> 100 µM
same,TGI,RXF 393 renal,> 100 µM
same,TGI,SK-MEL-5 melanoma,> 100 µM
same,TGI,UACC-257 melanoma,> 100 µM
CC(=O)O[C@H]1[C@@H](N2CCN(C)CC2)C[C@H]2[C@@H]3CC=C4C[C@@H](N5CCCC5)CC[C@]4(C)[C@H]3CC[C@@]21C,TGI,A498 renal,> 100 µM
same,TGI,A549 NSCLC,> 100 µM
same,TGI,COLO 205 colon,> 100 µM
same,TGI,HCC-2998 colon,> 100 µM
same,TGI,HOP-62 NSCLC,> 100 µM
same,TGI,HOP-92 NSCLC,> 100 µM
same,TGI,MDA-N,> 100 µM
same,TGI,NCI-H460 lung,> 100 µM
same,TGI,RXF 393 renal,71.8 µM
same,TGI,SK-MEL-5 melanoma,73 µM
same,TGI,UACC-257 melanoma,49.4 µM
CCOC1SC(SC)=NN1C(=O)C(OC(C)=O)C(OC(C)=O)C(OC(C)=O)C(OC(C)=O)C(=O)N1N=C(SC)SC1OCC (configuration not stated),TGI,A498 renal,> 100 µM
same,TGI,A549 NSCLC,> 100 µM
same,TGI,COLO 205 colon,> 100 µM
same,TGI,HCC-2998 colon,> 100 µM
same,TGI,HOP-62 NSCLC,> 100 µM
same,TGI,HOP-92 NSCLC,> 100 µM
same,TGI,MDA-N,> 100 µM
same,TGI,NCI-H460 lung,> 100 µM
same,TGI,RXF 393 renal,> 100 µM
same,TGI,SK-MEL-5 melanoma,> 100 µM
same,TGI,UACC-257 melanoma,> 100 µM
Cc1c2cccc-2c(OCCO)cc2c1[nH]c1ccccc12,TGI,A498 renal,> 31.6 µM
same,TGI,A549 NSCLC,11.6 µM
same,TGI,COLO 205 colon,9.4 µM
same,TGI,HCC-2998 colon,12.1 µM
same,TGI,HOP-62 NSCLC,14.5 µM
same,TGI,HOP-92 NSCLC,> 28.7 µM
same,TGI,MDA-N,7.9 µM
same,TGI,NCI-H460 lung,18.3 µM
same,TGI,RXF 393 renal,5.37 µM
same,TGI,SK-MEL-5 melanoma,2.95 µM
same,TGI,UACC-257 melanoma,10.7 µM
